Laboratory results taken from patent US12565505B2, “mTORC modulators and uses thereof” (Aeovian Pharmaceuticals, Inc., priority 2019, dated 2026).

How the values were obtained:
mTORC2 = biological target: T1, mTORC2 (Homo sapiens, UniProt P42345+P62942); assay: Inhibition assay for mTORC2: phosphorylation of pAkt at Ser473, AlphaLISA SureFire in PC3 cells; assay type: cell-based; settings: PC3 cells, 24 hours treatment, analogs substituted at C40 and C16 (C16 diastereomer mixtures not isolated), read-out: pIC50 mTORC2 (converted)
T1 construct: endogenous in cells; host or cells: PC3 cells (human prostate adenocarcinoma)
Protocol: The IC50s of the inhibition of mTORC1 and mTORC2 were determined in vitro by determining the phosphorylation of pS6K at position Thr389 (mTORC1 inhibition) and pAkt at Ser473 (mTORC2 inhibition). In vitro studies were performed with AiphaLISA® technology using PC3 cells (Prostate Adenocarcinoma; Human (Homo sapiens)). The cells were seeded in 96 well plates and were treated for 24 hours with the different compounds. […] All analysis were performed using GraphPad Prism 7.0 (GraphPad Software, San Diego, USA). […]

mTORC1 = biological target: T2, mTORC1 (Homo sapiens, UniProt P42345+P62942); assay: Inhibition assay for mTORC1: phosphorylation of pS6K at Thr389, AlphaLISA SureFire in PC3 cells; assay type: cell-based; settings: PC3 cells, 24 hours treatment, pS6K Thr389; analogs substituted at C40 and C16 (C16 diastereomer mixtures not isolated); read-out: pIC50 mTORC1 (converted)
T2 construct: endogenous in cells; host or cells: PC3 cells (human prostate adenocarcinoma)
Protocol: The IC50s of the inhibition of mTORC1 and mTORC2 were determined in vitro by determining the phosphorylation of pS6K at position Thr389 (mTORC1 inhibition) and pAkt at Ser473 (mTORC2 inhibition). In vitro studies were performed with AiphaLISA® technology using PC3 cells (Prostate Adenocarcinoma; Human (Homo sapiens)). The cells were seeded in 96 well plates and were treated for 24 hours with the different compounds. […] All analysis were performed using GraphPad Prism 7.0 (GraphPad Software, San Diego, USA).
Tables 5-7 include PIC50 values for mTORC1 of selected compounds; with compounds having an PIC50 for mTORC1 of >9.5 as A, 8.5 to 9.5 as B, and less than 8.5 as C.

IC50 (mTORC2)	IC50 (mTORC1)	Compound
1000 to 10000 nM	< 0.316 nM	COCCOC1C[C@@H]2CC[C@@H](C)[C@@](O)(O2)C(=O)C(=O)N2CCCCC2C(=O)O[C@H]([C@H](C)C[C@@H]2CC[C@@H](OCCCN3CCN(C)CC3)[C@H](OC)C2)CC(=O)[C@H](C)/C=C(\C)[C@@H](O)[C@@H](OC)C(=O)[C@H](C)C[C@H](C)/C=C/C=C/C=C/1C (stereo partly shown) [Compound 32]
1000 to 10000 nM	< 0.316 nM	COCCOC1C[C@@H]2CC[C@@H](C)[C@@](O)(O2)C(=O)C(=O)N2CCCCC2C(=O)O[C@H]([C@H](C)C[C@@H]2CC[C@@H](OCCN3CCCCC3)[C@H](OC)C2)CC(=O)[C@H](C)/C=C(\C)[C@@H](O)[C@@H](OC)C(=O)[C@H](C)C[C@H](C)/C=C/C=C/C=C/1C (stereo partly shown) [Compound 51]
> 10000 nM	< 0.316 nM	CO[C@@H]1C[C@H](C[C@@H](C)[C@@H]2CC(=O)[C@H](C)/C=C(\C)[C@@H](O)[C@@H](OC)C(=O)[C@H](C)C[C@H](C)/C=C/C=C/C=C(\C)C(OCCO)C[C@@H]3CC[C@@H](C)[C@@](O)(O3)C(=O)C(=O)N3CCCCC3C(=O)O2)CC[C@H]1OCCO (stereo partly shown) [Compound 9]
1000 to 10000 nM	< 0.316 nM	COCCOC1C[C@@H]2CC[C@@H](C)[C@@](O)(O2)C(=O)C(=O)N2CCCCC2C(=O)O[C@H]([C@H](C)C[C@@H]2CC[C@@H](OCCCN3CCO[C@H](C)C3)[C@H](OC)C2)CC(=O)[C@H](C)/C=C(\C)[C@@H](O)[C@@H](OC)C(=O)[C@H](C)C[C@H](C)/C=C/C=C/C=C/1C (stereo partly shown) [Compound 36]
< 1000 nM	< 0.316 nM	CO[C@@H]1C[C@H](C[C@@H](C)[C@@H]2CC(=O)[C@H](C)/C=C(\C)[C@@H](O)[C@@H](OC)C(=O)[C@H](C)C[C@H](C)/C=C/C=C/C=C(\C)C(OCCc3ccccc3)C[C@@H]3CC[C@@H](C)[C@@](O)(O3)C(=O)C(=O)N3CCCCC3C(=O)O2)CC[C@H]1OC(=O)NCCc1c[nH]cn1 (stereo partly shown) [Compound 110]
1000 to 10000 nM	< 0.316 nM	CO[C@@H]1C[C@H](C[C@@H](C)[C@@H]2CC(=O)[C@H](C)/C=C(\C)[C@@H](O)[C@@H](OC)C(=O)[C@H](C)C[C@H](C)/C=C/C=C/C=C(\C)C(OCCO)C[C@@H]3CC[C@@H](C)[C@@](O)(O3)C(=O)C(=O)N3CCCCC3C(=O)O2)CC[C@H]1OC(=O)N(C)CCN1CCOCC1 (stereo partly drawn) [Compound 41, [(1R,2R,4S)-4-[(2R)-2-[(1R,9S,12S,15R,16E,18R,19R,21R,23S,24E,26E,28E,32S,35R)-1,18-dihydroxy-30-(2-hydroxyethoxy)-19-methoxy-15,17,21,23,29,35-hexamethyl-2,3,10,14,20-pentaoxo-11,36-dioxa-4-azatricyclo[30.3.1.0^4,9]hexatriaconta-16,24,26,28-tetraen-12-yl]propyl]-2-methoxy-cyclohexyl] N-methyl-N-(2-morpholinoethyl)carbamate]
< 1000 nM	< 0.316 nM	CO[C@@H]1C[C@H](C[C@@H](C)[C@@H]2CC(=O)[C@H](C)/C=C(\C)[C@@H](O)[C@@H](OC)C(=O)[C@H](C)C[C@H](C)/C=C/C=C/C=C(\C)C(OCCc3ccccc3)C[C@@H]3CC[C@@H](C)[C@@](O)(O3)C(=O)C(=O)N3CCCCC3C(=O)O2)CC[C@H]1OC(=O)NCCN(C)C (stereo partly drawn) [Compound 104, [(1R,2R,4S)-4-[(2R)-2-[(1R,9S,12S,15R,16E,18R,19R,21R,23S,24E,26E,28E,32S,35R)-1,18-dihydroxy-19-methoxy-15,17,21,23,29,35-hexamethyl-2,3,10,14,20-pentaoxo-30-(2-phenylethoxy)-11,36-dioxa-4-azatricyclo[30.3.1.0^4,9]hexatriaconta-16,24,26,28-tetraen-12-yl]propyl]-2-methoxy-cyclohexyl] N-[2-(dimethylamino)ethyl]carbamate]
> 10000 nM	< 0.316 nM	CO[C@@H]1C[C@H](C[C@@H](C)[C@@H]2CC(=O)[C@H](C)/C=C(\C)[C@@H](O)[C@@H](OC)C(=O)[C@H](C)C[C@H](C)/C=C/C=C/C=C(\C)C(OCCO)C[C@@H]3CC[C@@H](C)[C@@](O)(O3)C(=O)C(=O)N3CCCCC3C(=O)O2)CC[C@H]1OCCCN1CCOC(C)(C)C1 (stereo partly shown) [Compound 12]
> 10000 nM	< 0.316 nM	CO[C@@H]1CC[C@@H](C[C@@H](C)[C@@H]2CC(=O)[C@H](C)/C=C(\C)[C@@H](O)[C@@H](OC)C(=O)[C@H](C)C[C@H](C)/C=C/C=C/C=C(\C)C(OCCCO)C[C@@H]3CC[C@@H](C)[C@@](O)(O3)C(=O)C(=O)N3CCCCC3C(=O)O2)C[C@H]1OC (stereo partly shown) [Compound 19]
> 10000 nM	< 0.316 nM	CO[C@@H]1C[C@H](C[C@@H](C)[C@@H]2CC(=O)[C@H](C)/C=C(\C)[C@@H](O)[C@@H](OC)C(=O)[C@H](C)C[C@H](C)/C=C/C=C/C=C(\C)C(OCCO)C[C@@H]3CC[C@@H](C)[C@@](O)(O3)C(=O)C(=O)N3CCCCC3C(=O)O2)CC[C@H]1OCCCO (stereo partly shown) [Compound 10]
1000 to 10000 nM	< 0.316 nM	COCCCCOC1C[C@@H]2CC[C@@H](C)[C@@](O)(O2)C(=O)C(=O)N2CCCCC2C(=O)O[C@H]([C@H](C)C[C@@H]2CC[C@@H](OCCCN3CCOCC3)[C@H](OC)C2)CC(=O)[C@H](C)/C=C(\C)[C@@H](O)[C@@H](OC)C(=O)[C@H](C)C[C@H](C)/C=C/C=C/C=C/1C (stereo partly shown) [Compound 65]
< 1000 nM	< 0.316 nM	CO[C@@H]1C[C@H](C[C@@H](C)[C@@H]2CC(=O)[C@H](C)/C=C(\C)[C@@H](O)[C@@H](OC)C(=O)[C@H](C)C[C@H](C)/C=C/C=C/C=C(\C)C(OCCc3ccccc3)C[C@@H]3CC[C@@H](C)[C@@](O)(O3)C(=O)C(=O)N3CCCCC3C(=O)O2)CC[C@H]1OCCCN1CCOCC1 (stereo partly shown) [Compound 108]
1000 to 10000 nM	< 0.316 nM	COCCCCOC1C[C@@H]2CC[C@@H](C)[C@@](O)(O2)C(=O)C(=O)N2CCCCC2C(=O)O[C@H]([C@H](C)C[C@@H]2CC[C@@H](OCCO)[C@H](OC)C2)CC(=O)[C@H](C)/C=C(\C)[C@@H](O)[C@@H](OC)C(=O)[C@H](C)C[C@H](C)/C=C/C=C/C=C/1C (stereo partly shown) [Compound 102]
1000 to 10000 nM	0.316 to 3.16 nM	CO[C@@H]1C[C@H](C[C@@H](C)[C@@H]2CC(=O)[C@H](C)/C=C(\C)[C@@H](O)[C@@H](OC)C(=O)[C@H](C)C[C@H](C)/C=C/C=C/C=C(\C)C(OCCO)C[C@@H]3CC[C@@H](C)[C@@](O)(O3)C(=O)C(=O)N3CCCCC3C(=O)O2)CC[C@H]1OC(=O)NCCN1CCOCC1 (stereo partly shown) [Compound 82]
> 10000 nM	0.316 to 3.16 nM	CO[C@@H]1C[C@H](C[C@@H](C)[C@@H]2CC(=O)[C@H](C)/C=C(\C)[C@@H](O)[C@@H](OC)C(=O)[C@H](C)C[C@H](C)/C=C/C=C/C=C(\C)C(OC3COC3)C[C@@H]3CC[C@@H](C)[C@@](O)(O3)C(=O)C(=O)N3CCCCC3C(=O)O2)CC[C@H]1OC(=O)NCCN1CCOCC1 (stereo partly shown) [Compound 71]
1000 to 10000 nM	< 0.316 nM	CO[C@@H]1C[C@H](C[C@@H](C)[C@@H]2CC(=O)[C@H](C)/C=C(\C)[C@@H](O)[C@@H](OC)C(=O)[C@H](C)C[C@H](C)/C=C/C=C/C=C(\C)C(OC[C@@H](O)c3ccccc3)C[C@@H]3CC[C@@H](C)[C@@](O)(O3)C(=O)C(=O)N3CCCCC3C(=O)O2)CC[C@H]1OCCCO (stereo partly shown) [Compound 90]
> 10000 nM	< 0.316 nM	COCCCO[C@@H]1CC[C@@H](C[C@@H](C)[C@@H]2CC(=O)[C@H](C)/C=C(\C)[C@@H](O)[C@@H](OC)C(=O)[C@H](C)C[C@H](C)/C=C/C=C/C=C(\C)C(OCCOCCOC)C[C@@H]3CC[C@@H](C)[C@@](O)(O3)C(=O)C(=O)N3CCCCC3C(=O)O2)C[C@H]1OC (stereo partly shown) [Compound 23]
> 10000 nM	< 0.316 nM	CO[C@@H]1CC[C@@H](C[C@@H](C)[C@@H]2CC(=O)[C@H](C)/C=C(\C)[C@@H](O)[C@@H](OC)C(=O)[C@H](C)C[C@H](C)/C=C/C=C/C=C(\C)C(OCCCCO)C[C@@H]3CC[C@@H](C)[C@@](O)(O3)C(=O)C(=O)N3CCCCC3C(=O)O2)C[C@H]1OC (stereo partly shown) [Compound 24]
> 10000 nM	< 0.316 nM	COCCCO[C@@H]1CC[C@@H](C[C@@H](C)[C@@H]2CC(=O)[C@H](C)/C=C(\C)[C@@H](O)[C@@H](OC)C(=O)[C@H](C)C[C@H](C)/C=C/C=C/C=C(\C)C(OCCO)C[C@@H]3CC[C@@H](C)[C@@](O)(O3)C(=O)C(=O)N3CCCCC3C(=O)O2)C[C@H]1OC (stereo partly shown) [Compound 3]
< 1000 nM	< 0.316 nM	CO[C@@H]1C[C@H](C[C@@H](C)[C@@H]2CC(=O)[C@H](C)/C=C(\C)[C@@H](O)[C@@H](OC)C(=O)[C@H](C)C[C@H](C)/C=C/C=C/C=C(\C)C(OCCc3ccccc3)C[C@@H]3CC[C@@H](C)[C@@](O)(O3)C(=O)C(=O)N3CCCCC3C(=O)O2)CC[C@H]1OC(=O)NCCN1CCOCC1 (stereo partly shown) [Compound 93]
